Where a name gives a salt, the structure may show the parent alone.
Molecular target: T1, CAMKK1 kinase domain (CAMKK1-KD, Gln124-Lys411) (Homo sapiens, UniProt Q8N5S9)
T1 construct: The kinase domain (Gln124 to Lys411) was amplified using the primers; 6xHis (TEV-cleavable) (N, cleaved yes); made in house; host or cells: Escherichia coli BL21(DE3)-R3 co-expressing λ-phosphatase
Experiment: Differential scanning fluorimetry (DSF) screen of a kinase inhibitor library against CAMKK1-KD
Assay type: binding
Conditions: DSF, 1 μM CAMKK1-KD, compound 10 µM; mean and standard error from triplicate measurements
Method: DSF measurements were made in a 384-well plate.
The compounds, previously solubilized in DMSO, were used at 10 µM final concentration and 0.1% DMSO. Plates were sealed using optically clear films and transferred to a QuantStudio 6 qPCR instrument (Applied Biosystems). […] Protein in 0.1% DMSO was used as a reference.

T1 sequence (Q8N5S9 124-411): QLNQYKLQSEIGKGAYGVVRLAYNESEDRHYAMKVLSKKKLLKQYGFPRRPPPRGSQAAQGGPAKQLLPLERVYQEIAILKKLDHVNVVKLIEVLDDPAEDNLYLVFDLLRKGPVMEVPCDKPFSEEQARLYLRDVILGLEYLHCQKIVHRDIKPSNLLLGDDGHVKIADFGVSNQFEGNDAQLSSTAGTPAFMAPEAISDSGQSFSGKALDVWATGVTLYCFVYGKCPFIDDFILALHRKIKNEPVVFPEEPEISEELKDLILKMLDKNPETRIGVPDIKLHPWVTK

Compound | ΔTm (°C) CAMKK1 [°C]
COc1cc(N2CCC(N)CC2)ccc1Nc1ncc(Cl)c(-c2c[nH]c3ccccc23)n1 [AZD3463] | 11.5 ± 0.3

Same assay, conditions: DSF, 1 μM CAMKK1-KD, compound 10 µM; mean and standard error from triplicate measurements; read-out: ΔTm (°C) CAMKK1

Compound | ΔTm at 10 µM [°C]
C1=C/COCc2cc(ccc2OCCN2CCCC2)Nc2nccc(n2)-c2cccc(c2)COC/1 [Pacritinib (SB1518), Pacritinib] | 5.7 ± 1.2
COc1cc2nccc(Oc3ccc(NC(=O)Nc4cc(C)on4)c(Cl)c3)c2cc1OC [Tivozanib (AV-951), Tivozanib] | 2.6 ± 3.1

Same assay, conditions: DSF, 1 μM CAMKK1-KD, compound 10 µM; supplement

Compound | Mean ΔTm (°C)
Cc1[nH]nc2ccc(-c3cncc(OC[C@@H](N)Cc4ccccc4)c3)cc12 [A-674563] | 5.7
COc1ccc2c(Oc3ccc(NC(=O)c4c(C)n(CC(C)(C)O)n(-c5ccccc5)c4=O)nc3)ccnc2c1 [AMG-458] | 5.2
O=C1NC(=O)/C(=C/c2ccc(-c3ccc(F)cc3O)o2)S1 [AS-252424] | 4.8
CC(C)CCN1c2nc(Nc3cc(F)c(O)c(F)c3)ncc2N(C)C(=O)C1C (stereo not shown) [BI-D1870] | 3.6
O=C1Nc2cc(Br)ccc2/C1=C1/Nc2ccccc2/C1=N\O [BIO] | 2.9
Cc1cc(N2CCOCC2)cc2[nH]c(-c3c(NC[C@@H](O)c4cccc(Cl)c4)cc[nH]c3=O)nc12 [BMS-536924] | 3.6
O=C(Nc1cccc(Nc2ncc(Br)c(NCCc3cnc[nH]3)n2)c1)N1CCCC1 [BX-912] | 4.3
O=c1[nH]c2ccc(Cl)cc2c(N[C@@H]2CN3CCC2CC3)c1-c1nc2ccccc2[nH]1 [CHIR-124] | 5.5
C=CC(=O)Nc1cccc(Nc2nc(Nc3ccc(NC4CN(CCF)C4)cc3OC)ncc2C(F)(F)F)c1 [CNX-2006] | 4.4
COc1cc2nccc(Oc3ccc(NC(=O)C4(C(=O)Nc5ccc(F)cc5)CC4)cc3)c2cc1OC [Cabozantinib (XL184), Cabozantinib] | 5.0
CN1CCN(c2ccc3nc(-c4c(N)c5c(F)cccc5[nH]c4=O)[nH]c3c2)CC1 [Dovitinib (TKI-258), Dovitinib] | 3.1
CN(C)CCCn1cc(C2=C(c3c[nH]c4ccccc34)C(=O)NC2=O)c2ccccc21 [GF109203X] | 2.4
O=C1Nc2ccc(I)cc2/C1=C/c1cc(Br)c(O)c(Br)c1 [GW5074] | 5.4
COc1cc2nccc(Oc3ccc(NC(=O)Nc4ccc(F)cc4F)c(F)c3)c2cc1OC [Ki8751] | 2.1
COc1ccccc1-c1cc(Nc2cccc(CS(N)(=O)=O)c2)ncn1 [LDC000067] | 4.2
O=C(c1cccc(Cl)c1F)N1CCN(Cc2cccc(Nc3nccs3)n2)CC1 [MK-8745] | 2.0
CN(c1ncccc1CNc1nc(Nc2ccc3c(c2)CC(=O)N3)ncc1C(F)(F)F)S(C)(=O)=O [PF-00562271] | 5.2
CN(c1ncccc1CNc1nc(Nc2ccc3c(c2)CC(=O)N3)ncc1C(F)(F)F)S(C)(=O)=O [PF-562271] | 5.6
CS(=O)(=O)c1cccc(CNc2nc(Nc3ccc4c(c3)CCC(=O)N4)ncc2C(F)(F)F)c1 [PF-573228] | 5.8
O=C1NCCc2[nH]c(-c3ccncc3)cc21 [PHA-767491] | 3.0
NC(=O)c1cnc(N[C@@H]2CCCC[C@@H]2N)nc1Nc1cccc(-n2nccn2)c1 [PRT062607 (P505-15)] | 4.1
O=C(NCc1cccc(O)c1)Nc1nc(-c2ccncc2)cs1 [RKI-1447] | 5.6
COc1cc(C(=O)NC2CCN(C)CC2)ccc1Nc1ncc2c(n1)N(C1CCCC1)CC(F)(F)C(=O)N2C [Ro3280] | 4.8
CS(=O)(=O)O.Cn1cc(C2=C(c3cn(CCCSC(=N)N)c4ccccc34)C(=O)NC2=O)c2ccccc21 [Ro 31-8220 Mesylate] | 3.4
O=C1NC(=O)C(c2ccccc2[N+](=O)[O-])=C1Nc1ccc(O)c(Cl)c1 [SB415286] | 2.7
CN1CCC(CNc2ccc3ncc(-c4cccc(OC(F)(F)F)c4)n3n2)CC1 [SGI-1776 free base] | 3.4
CNC(=O)c1ccccc1Nc1nc(Nc2ccc(N3CCOCC3)cc2OC)ncc1Cl [TAE226 (NVP-TAE226)] | 3.0
Cc1cnc(Nc2ccc(N3CCN(C)CC3)cc2)nc1Nc1cccc(S(=O)(=O)NC(C)(C)C)c1 [TG101209] | 3.6
O=C(NCc1ccccc1)c1csc(Nc2ccncn2)n1 [Thiazovivin] | 3.0

Same assay, conditions: DSF, 1 μM CAMKK1-KD, compound 10 µM; supplement; read-out: Mean ΔTm (°C)

Compound | ΔTm at 10 µM [°C]
O=C(Nc1c[nH]nc1-c1nc2ccc(CN3CCOCC3)cc2[nH]1)NC1CC1 [AT9283] | 5.6
Cc1cc(Nc2nc(N[C@@H](C)c3ccc(F)cc3)c(C#N)cc2F)[nH]n1 [AZ 960] | 4.4
Cc1cc(Nc2nc(N[C@@H](C)c3ncc(F)cn3)ncc2Cl)n[nH]1 [AZD1480] | 3.8
Cc1ncc(-c2ccnc(Nc3ccc(S(C)(=O)=O)cc3)n2)n1C(C)C [AZD5438] | 3.4
NC(=O)Nc1cc(-c2cccc(F)c2)sc1C(=O)N[C@H]1CCCNC1 [AZD7762] | 3.6
C=CC(=O)Nc1cc(Nc2nccc(-c3cn(C)c4ccccc34)n2)c(OC)cc1N(C)CCN(C)C [AZD9291] | 2.6
CN(C)C/C=C/C(=O)Nc1cc2c(Nc3ccc(F)c(Cl)c3)ncnc2cc1O[C@H]1CCOC1 [Afatinib (BIBW2992), Afatinib] | 3.4
Nc1nccc(Oc2ccc(NC(=O)c3c[nH]cc(-c4ccc(F)cc4)c3=O)cc2F)c1Cl [BMS-794833] | 4.9
O=C(NCCCNc1nc(Nc2cccc(NC(=O)N3CCCC3)c2)ncc1I)c1cccs1 [BX-795] | 5.6
C=CC(=O)Nc1cccc(Nc2nc(Nc3ccc(N4CCN(C(C)=O)CC4)cc3OC)ncc2C(F)(F)F)c1 [CO-1686 (AVL-301)] | 3.4
Cc1nc(N)sc1-c1ccnc(Nc2ccc(N3CCOCC3)cc2)n1 [CYC116] | 2.7
N#CCNC(=O)c1ccc(-c2ccnc(Nc3ccc(N4CCOCC4)cc3)n2)cc1 [CYT387] | 4.7
COc1cc2nccc(Oc3ccc(NC(=O)C4(C(=O)Nc5ccc(F)cc5)CC4)cc3)c2cc1OC [Cabozantinib malate (XL184), Cabozantinib malate] | 5.2
CO[C@@H](C(=O)N1Cc2n[nH]c(NC(=O)c3ccc(N4CCN(C)CC4)cc3)c2C1)c1ccccc1 [Danusertib (PHA-739358), Danusertib] | 3.8
Cc1cc(Nc2cc(N3CCN(C)CC3)nc(/C=C/c3ccccc3)n2)n[nH]1 [ENMD-2076] | 2.6
CN1CCN(C2CCN(C(=O)Nc3cc(Oc4ccc(NC(=O)C5(C(=O)Nc6ccc(F)cc6)CC5)c(F)c4)ccn3)CC2)CC1 [Golvatinib (E7050), Golvatinib] | 5.5
Nc1nc(Nc2ccc(S(N)(=O)=O)cc2)nn1C(=O)c1c(F)cccc1F [JNJ-7706621] | 3.6
Cc1cc(Nc2ncc(Cl)c(Nc3ccccc3S(=O)(=O)C(C)C)n2)c(OC(C)C)cc1C1CCNCC1 [LDK378] | 3.9
Cc1cc(Nc2cc(CN3CCOCC3)c3nc(C)c(Cc4ccc(Cl)cc4F)n3n2)n[nH]1 [LY2784544] | 4.6
CCN1CCN(Cc2ccc(Nc3ncc(F)c(-c4cc(F)c5nc(C)n(C(C)C)c5c4)n3)nc2)CC1 [LY2835219] | 6.7
CNC(=O)c1nn(C)c2c1C(C)(C)Cc1cnc(Nc3ccc(N4CCN(C)CC4)cc3)nc1-2 [Milciclib (PHA-848125), Milciclib] | 4.1
Cc1nc(Nc2[nH]nc3c2CN(C(=O)N[C@H](CN(C)C)c2ccccc2)C3(C)C)c2sccc2n1 [PF-3758309] | 4.6
Cc1[nH]c(/C=C2\C(=O)Nc3ccc(S(=O)(=O)Cc4c(Cl)cccc4Cl)cc32)c(C)c1C(=O)N1CCC[C@@H]1CN1CCCC1 [PHA-665752] | 5.2
CC(C)CC(=O)Nc1[nH]nc2c1CN(C(=O)C1CCN(C)CC1)C2(C)C [PHA-793887] | 3
CCOc1cc2ncc(C#N)c(Nc3ccc(F)c(Cl)c3)c2cc1NC(=O)/C=C/CN(C)C [Pelitinib (EKB-569), Pelitinib] | 3.2
O=c1c(O)c(-c2ccc(O)c(O)c2)oc2cc(O)cc(O)c12 [Quercetin] | 4.9
CCS(=O)(=O)c1cccc(-c2cc(C(=O)NC3CCN(C)CC3)c(C)c3[nH]c4ncc(C)cc4c23)c1 [TAK-901] | 5
Cc1cnc(Nc2ccc(OCCN3CCCC3)cc2)nc1Nc1cccc(S(=O)(=O)NC(C)(C)C)c1 [TG101348 (SAR302503)] | 3.4
Cc1[nH]c(/C=C2\C(=O)Nc3ccccc32)c(C)c1CCC(=O)O [TSU-68 (SU6668)] | 4.9
COc1cc2c(N3CCN(C(=O)Nc4ccc(OC(C)C)cc4)CC3)ncnc2cc1OCCCN1CCCCC1 [Tandutinib (MLN518), Tandutinib] | 2.3

Same assay, conditions: read-out: Mean ΔTm (°C)

Compound | ΔTm at 10 µM [°C]
CC(=O)c1c(C)c2cnc(Nc3ccc(N4CCNCC4)cn3)nc2n(C2CCCC2)c1=O [Palbociclib (PD-0332991) HCl, Palbociclib] | 4.4
O=C(Nc1cccc(Cl)c1)Nc1ncc(CCNc2ncnc3ccsc23)s1 [SNS-314 Mesylate] | 4.5

Same assay, conditions: read-out: ΔTm (°C) CAMKK1

Compound | ΔTm at 10 µM [°C]
CCOc1ccn(-c2ccc(F)cc2)c(=O)c1C(=O)Nc1ccc(Oc2ccnc(N)c2Cl)c(F)c1 [BMS-777607] | 7.5 ± 0.3
Cc1ccc(C(=O)Nc2ccc(CN3CCN(C)CC3)c(C(F)(F)F)c2)cc1C#Cc1cnc2cccnn12 [Ponatinib (AP24534), Ponatinib] | 4.4 ± 3.1
CN[C@@H]1C[C@H]2O[C@@](C)([C@@H]1OC)n1c3ccccc3c3c4c(c5c6ccccc6n2c5c31)C(=O)NC4 [Staurosporine] | 23.7 ± 1.9

Reference: PMC6172212, “Structural Analysis of Inhibitor Binding to CAMKK1 Identifies Features Necessary for Design of Specific Inhibitors” (Scientific Reports, 2018)
